Tests used:
[1] = test system: human lung carcinoma cell line Calu-6; experiment: Antitumor test (Calu-6 xenograft); type: in vivo, Balb/c nude mice; conditions: 600 mg/kg, orally once daily for 11 days, mice
Description: (§1) A cell suspension of human lung carcinoma cell line Calu-6 was prepared using Hanks' balanced salt solution, and 5.0×10^6 of the cells were implanted subcutaneously in the flank region of female Balb/c nude mice. When the volume of the tumor reached 200 to 250 mm^3, the test compound was orally administered once daily for 11 days. The tumor volume was calculated from the equation π/6×(long diameter×short diameter×thickness). The tumor growth inhibition rate was calculated from changes in the tumor volume in the test compound treatment group relative to changes in the tumor volume in the control group.
(§2) The results of the antitumor test of compound 1-1-1 and compound 2-1-1, as representative examples of the compounds of the present invention, are shown in FIGS. 1-(A) and 1-(B) and 2-(A) and 2-(B).

[2] = test system: Human lung carcinoma cell line Calu-6; experiment: Cell proliferation assay (Calu-6); type: cell-based; conditions: Calu-6, 72 hours, WST-1, read-out: 50% growth inhibition concentration (IC50 value) Calu-6
Description: (§3) The test compound was serially diluted with DMSO, and then diluted 1:50 with a Ca^2+,Mg^2+-free phosphate-buffered physiological saline. The resulting dilution (10 μl) was dispensed into a 96-well plate. Human umbilical vein endothelial cells (HUVEC, purchased from Clonetics) were suspended in PRMI 1640 medium supplemented with 10% bovine fetal serum, 30 μg/mL vascular endothelial cell growth supplement, and 50 μg/mL heparin. Human lung carcinoma cell line Calu-6 was suspended in MEM medium supplemented with 10% bovine fetal serum, 0.1 mM nonessential amino acid, and 1 mM sodium pyruvate. Each cell suspension (190 μL) was dispensed into the plate containing the test compound such that the cell count per well was 3,000 cells. The plate was incubated in a CO2 incubator (37° C., 5% CO2). After 72 hours, 20 μL WST-1 (produced by Roche Diagnostics) was added to each well and, after 2 hours of incubation, the absorbance at 450 nm (reference wavelength: 650 nm) was measured. The 50% growth inhibition concentration (IC50 value) of the test compound was calculated from the inhibition rate obtained when the test compound was added, in comparison with the reference value obtained when the test compound was not added.
(§4) The IC50 values, for HUVEC and Calu-6, of representative examples of the compounds of the present invention are shown in Table 1.

[3] = test system: blood vessels in the tumor tissue (Calu-6 xenograft); experiment: Measurement of the number of blood vessels in the tumor; type: in vivo, Balb/c nude mice; conditions: 600 mg/kg, orally once daily for 11 days, mice, relative to control group
From the text: Measurement of the Number of Blood Vessels in the Tumor
5.0×10^6 Cells of human lung carcinoma cell line Calu-6 were implanted subcutaneously in the flank region of female Balb/c nude mice. When the volume of tumor reached 200 to 250 mm^3, the test compound was orally administered once daily for 11 days. Twenty-four hours after the final administration, xenograft tissue was removed from the mice, and a middle portion of the long diameter of the tumor was embedded, as a block 2 to 3 mm thick, in O.C.T. Compound, and preserved as a frozen tissue specimen. Frozen sections were prepared, and blood vessels in the tumor tissue were stained by an immunohistological method using anti-mouse CD31 antibody. The stained tissue was photographed under a microscope, and the images were stored as an image file. The number of the stained blood vessels was measured by Image Pro (Promega). The decrease rate of blood vessel density was calculated as a decrease rate relative to the blood vessel density in the control group.
The decrease rates of the blood vessel density in the tumor tissue following treatment with 600 mg/kg of compound 1-1-1 and compound 2-1-1, as representative examples of the compounds of the present invention, are shown in Table 3.

[4] = test system: HUVEC; experiment: Tube formation assay; type: cell-based; conditions: Homo sapiens, 264 h, 11 days of incubation, CD31 staining, read-out: capillary-like tube formation inhibition rates (%)
Description: An angiogenesis measurement kit (produced by KURABO) was charged with the test compound at final concentration of 20 μM, and incubated in a CO2 incubator (37° C., 5%). After 11 days of incubation, capillary-like tubes formed were fixed with 70% ethanol and visualized with a CD31 staining kit (produced by KURABO). Under a microscope, stain images of the wells were photographed, stored as an image file, and measured for the area of capillary-like tube formation by use of angiogenesis quantitative determination software of KURABO. The inhibition rates (%) of the test compound-charged wells were calculated, with the control taken as 100%.
The capillary-like tube formation inhibiting rates at 20 μM, against HUVEC, of representative examples of the compounds of the present invention are shown in Table 2.

[5] = test system: Human umbilical vein endothelial cells (HUVEC); experiment: Cell proliferation assay (HUVEC); type: cell-based; conditions: 72 hours, WST-1, read-out: 50% growth inhibition concentration (IC50 value) HUVEC
Description: as §3, §4

[6] = Body weight and toxicity findings in the antitumor test; type: in vivo; conditions: 600 mg/kg, orally once daily for 11 days
Description: as §1, §2

Structure (SMILES)	IC50 [2] [nM]	tumor growth inhibition rates (TGI) [1] [%]	Decrease (%) in intratumor blood vessel density [3] [%]	inhibition at 20 µM [4] [%]	IC50 [5] [nM]	body weights of the mice [6]	findings of toxicity [6]
COc1ccc(C(N)=O)cc1C(=O)Nc1ccc(Cl)cc1 [Compound 1-1-1, 3-N-(4-chlorophenyl)-4-methoxyisophthalamide]	> 100000	82	44	43	2270	no decreases in the body weights of the mice were observed	no findings of toxicity observed
COc1ccc(C(N)=O)cc1C(=O)Nc1cccc2c1CCCC2 [Compound 1-3-6, 4-methoxy-3-N-(5,6,7,8-tetrahydronaphthalen-1-yl)isophthalamide]	> 50000			46	240		
COc1ccccc1NC(=O)c1cc(C(N)=O)ccc1OC [Compound 1-3-10, 4-methoxy-3-N-(2-methoxyphenyl)isophthalamide]	> 50000			46	760		
COc1ccc(C(N)=O)cc1C(=O)Nc1ccccc1F [Compound 1-3-12, 3-N-(2-fluorophenyl)-4-methoxyisophthalamide]	> 50000			27	2540		
COc1ccc(C(N)=O)cc1C(=O)Nc1cc(C)c(F)cc1Cl [Compound 1-3-17, 3-N-(2-chloro-4-fluoro-5-methylphenyl)-4-methoxyisophthalamide]	> 25000			80	1200		
COc1cc(NC(=O)c2cc(C(N)=O)ccc2OC)cc(OC)c1 [Compound 1-3-18, 3-N-(3,5-dimethoxyphenyl)-4-methoxyisophthalamide]	> 50000			29	1250		
COc1ccc(C(N)=O)cc1C(=O)Nc1ccc(C(F)(F)F)cc1 [Compound 1-3-21, 4-methoxy-3-N-(4-trifluoromethylphenyl)isophthalamide]	> 50000			71	5100		
COc1ccc(C(N)=O)cc1C(=O)Nc1ccccc1C [Compound 1-3-23, 4-methoxy3-N-o-tolylisophthalamide]	> 50000			27	2850		
COc1ccc(C(N)=O)cc1C(=O)Nc1ccc(Br)cc1Cl [Compound 1-3-41, 3-N-(4-bromo-2-chlorophenyl)-4-methoxyisophthalamide]	> 50000			82	40		
COc1ccc(C(N)=O)cc1/C=C/c1ccc(OC(F)(F)F)cc1 [Compound 2-1-1, 4-methoxy-3-[(E)-2-(4-trifluoromethoxyphenyl)vinyl]benzamide]	> 100000	75	37	93	170	no decreases in the body weights of the mice were observed	no findings of toxicity observed

Continued, in another order:

IC50 [2] [nM]	Structure (SMILES)	tumor growth inhibition rates (TGI) [1] [%]	Decrease (%) in intratumor blood vessel density [3] [%]	inhibition at 20 µM [4] [%]	IC50 [5] [nM]	body weights of the mice [6]	findings of toxicity [6]
> 100000	COc1ccc(C(N)=O)cc1C(=O)Nc1ccc(OC(F)(F)F)cc1 [Compound 1-2-1, 3-N-(4-trifluoromethoxyphenyl)-4-methoxyisophthalamide]			68	2400		
> 50000	COc1ccc(C(N)=O)cc1C(=O)Nc1ccc(Br)cc1F [Compound 1-3-1, 3-N-(4-bromo-2-fluorophenyl)-4-methoxy-isophthalamide]				190		
> 50000	COc1ccc(C(N)=O)cc1C(=O)Nc1cccc(Cl)c1Cl [Compound 1-3-2, 3-N-(2,3-dichlorophenyl)-4-methoxyisophthalamide]				150		
> 50000	COc1ccc(C(N)=O)cc1C(=O)Nc1ccccc1OC(F)(F)F [Compound 1-3-5, 4-methoxy-3-N-(2-trifluoromethoxyphenyl)-isophthalamide]			91	140		
> 50000	COc1ccc(C(N)=O)cc1C(=O)Nc1ccccc1Cl [Compound 1-3-7, 3-N-(2-chlorophenyl)-4-methoxyisophthalamide]			67	280		
> 50000	COc1ccc(C(N)=O)cc1C(=O)Nc1cccc(C(F)(F)F)c1F [Compound 1-3-8, 3-N-(2-fluoro-3-trifluoromethylphenyl)-4-methoxyisophthalamide]				350		
> 50000	COc1ccc(C(N)=O)cc1C(=O)Nc1cc(C(F)(F)F)ccc1Cl [Compound 1-3-16, 3-N-(2-chloro-5-trifluoromethylphenyl)-4-methoxyisophthalamide]			80	4600		
> 50000	COc1ccc(C(N)=O)cc1C(=O)Nc1ccc(F)cc1F [Compound 1-3-24, 3-N-(2,4-difluorophenyl)-4-methoxyisophthalamide]			28	5190		
> 25000	COc1ccc(C(N)=O)cc1C(=O)Nc1cccc2ncccc12 [Compound 1-3-39, 4-methoxy-3-N-quinolin-5-yl-isophthalamide]			20	2360		
> 50000	COc1ccc(C(N)=O)cc1C(=O)Nc1ccc(Br)cc1Br [Compound 1-3-45, 3-N-(2,4-dibromophenyl)-4-methoxyisophthalamide]			31	50		
> 50000	COc1ccc(C(=O)NC2CCCC2)cc1/C=C/c1ccc(OC(F)(F)F)cc1 [Compound 2-2-1, N-cyclopentyl-4-methoxy-3-[(E)-2-(4-trifluoromethoxy-phenyl)vinyl]benzamide]			60	3350		
> 50000	CNC(=O)c1ccc(OC)c(/C=C/c2ccc(OC(F)(F)F)cc2)c1 [Compound 2-2-2, 4-methoxy-N-methyl-3-[(E)-2-(4-trifluoromethoxyphenyl)-vinyl]-benzamide]			77	2270		
> 25000	CCNC(=O)c1ccc(OC)c(/C=C/c2ccc(Cl)cc2)c1 [Compound 2-2-9, 3-[(E)-2-(4-chlorophenyl)-vinyl]-N-ethyl-4-methoxy-benzamide]			79	1410		

Source: patent publication US7705053B2, “Benzamide derivative” (Chugai Seiyaku Kabushiki Kaisha, priority 2003, dated 2010)
